The results in this text go back to PubChem BioAssay AID330 (DTP/NCI, 2004).

Values joined by “and” are separate entries in the source; they are usually repeats but may differ in a detail not shown here. Equal values may be shown once. Toxic doses and inconclusive results are not listed.

For the assay, the system named is P388 leukemia ip, CD2F1 mice, survival T/C. As to the kind of experiment: NCI In Vivo Anticancer Drug Screen. Data for tumor model P388 Leukemia (intraperitoneal) in CD2F1 (CDF1) mice. As to conditions: endpoint: median survival time, higher = longer survival. Summed up:
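Mice carrying the transplanted tumor received test compound or vehicle. Survival was recorded in each group, and the value is the treated-group measurement divided by that of the vehicle-treated control group.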

[1] abbreviates: dose: 50.0 mg/kg/injection, schedule: Q01DX005 (ip), vehicle: saline with Tween-80.
Where [2] appears, read: dose: 100.0 mg/kg/injection, schedule: Q01DX005 (ip), vehicle: saline with Tween-80.
Setting [3] is: dose: 200.0 mg/kg/injection, schedule: Q01DX005 (ip), vehicle: saline with Tween-80.
Where [4] appears, read: dose: 100.0 mg/kg/injection, schedule: Q04DX003 (ip), vehicle: saline with Tween-80.
[5] abbreviates: dose: 400.0 mg/kg/injection, schedule: Q04DX003 (ip), vehicle: saline with Tween-80.
The mark [6] stands for this setting: dose: 100.0 mg/kg/injection, schedule: Q01DX001 (ip), vehicle: saline with Tween-80.
The mark [7] stands for this setting: dose: 200.0 mg/kg/injection, schedule: Q01DX001 (ip), vehicle: saline with Tween-80.
Setting [8] is: dose: 400.0 mg/kg/injection, schedule: Q01DX001 (ip), vehicle: saline with Tween-80.
[9] abbreviates: dose: 60.0 mg/kg/injection, schedule: Q01DX005 (ip), vehicle: saline with Tween-80.
[10] abbreviates: dose: 120.0 mg/kg/injection, schedule: Q01DX005 (ip), vehicle: saline with Tween-80.
Setting [11] is: dose: 240.0 mg/kg/injection, schedule: Q01DX005 (ip), vehicle: saline with Tween-80.
Setting [12] is: dose: 50.0 mg/kg/injection, schedule: Q01DX009 (ip), vehicle: saline.
[13] abbreviates: dose: 100.0 mg/kg/injection, schedule: Q01DX009 (ip), vehicle: saline.
[14] abbreviates: dose: 200.0 mg/kg/injection, schedule: Q01DX009 (ip), vehicle: saline.

For `CCOC(=O)C(NC(=O)C(Cl)Cl)C(O)c1ccccc1` (centres undefined), the T/C under setting [1] was 100 % of control, the T/C under setting [2] was 100 % of control and the T/C under setting [3] was 89 % of control.
On to `COc1ccc(/C=N\O)cc1OC`, for which the T/C by setting is: under setting [4], 100 % of control; (dose: 200.0 mg/kg/injection, schedule: Q04DX003 (ip), vehicle: saline with Tween-80) 100 % of control; under setting [5], 100 % of control.
For `O=C1Cc2ccccc2C(=O)N1NCCO`, the T/C by setting is: under setting [6], 103 % of control; under setting [7], 102 % of control; under setting [8], 94 % of control.
Take `C/C(=C\c1ccccc1)C1C(C#N)C(=O)NC(=O)C1C#N` (centres undefined): the T/C by setting is: (dose: 50.0 mg/kg/injection, schedule: Q01DX009 (ip), vehicle: Klucel (hydroxypropylcellulose) (HPC)) 101 % of control; (dose: 100.0 mg/kg/injection, schedule: Q01DX009 (ip), vehicle: Klucel (hydroxypropylcellulose) (HPC)) 105 % of control; (dose: 200.0 mg/kg/injection, schedule: Q01DX009 (ip), vehicle: Klucel (hydroxypropylcellulose) (HPC)) 106 % of control.
As for `O=C(Cc1nc2ccccc2[nH]c1=O)c1cccnc1`, the T/C reads like this: under setting [9], 99 % of control; under setting [10], 94 % of control; under setting [11], 98 % of control.
With `COC(=O)N1C=CC2ON=C(OC)C2C1c1ccccc1` (centres undefined), the T/C is, setting by setting: under setting [1], 98 % of control; under setting [2], 98 % of control; under setting [3], 101 % of control.
For `O=c1c(Cc2c[nH]c3ccccc23)coc2ccccc12`, the T/C runs as follows: under setting [9], 100 % of control; under setting [10], 90 % of control; under setting [11], 89 % of control.
Take `CC12CCC3C(CCC4C(C)(C)C(O)CCC34C)(C1)OC2CO` (centres undefined): the T/C was 104 % of control (dose: 2.25 mg/kg/injection, schedule: Q01DX009 (ip), vehicle: Klucel (hydroxypropylcellulose) (HPC)); 108 % of control (dose: 4.5 mg/kg/injection, schedule: Q01DX009 (ip), vehicle: Klucel (hydroxypropylcellulose) (HPC)); 104 % of control (dose: 9.0 mg/kg/injection, schedule: Q01DX009 (ip), vehicle: Klucel (hydroxypropylcellulose) (HPC)); 118 % of control (dose: 18.0 mg/kg/injection, schedule: Q01DX009 (ip), vehicle: Klucel (hydroxypropylcellulose) (HPC)).
As to `CC(O)c1nc2c3ccccc3ccc2n1C` (centres undefined), the T/C is, setting by setting: under setting [1], 96 % of control; under setting [2], 93 % of control; under setting [3], 92 % of control.
As for `CCOC(=O)/C(C)=C1\N=C(c2ccccc2)OC(=NC2CCCCC2)N1C1CCCCC1`, the T/C by setting is: under setting [1], 96 % of control; under setting [2], 91 % of control; under setting [3], 94 % of control.
Take `CCOC(=O)c1c(NCCO)c(-c2ccccc2)c(=O)n2c1[nH]c1ccccc12`: the T/C by setting is: under setting [6], 100 % of control; under setting [7], 99 % of control; under setting [8], 87 % of control.
Consider `COC(=O)C1(CC(=O)c2cccc([N+](=O)[O-])c2)NC(=S)NC(=O)C1C#N` (centres undefined), for which the T/C is 100 % of control (dose: 60.0 mg/kg/injection, schedule: Q01DX005 (ip), vehicle: suspension in saline); 90 % of control (dose: 120.0 mg/kg/injection, schedule: Q01DX005 (ip), vehicle: suspension in saline); 90 % of control (dose: 240.0 mg/kg/injection, schedule: Q01DX005 (ip), vehicle: suspension in saline).
`CCCCCCNP(=O)(N1CC1)N1CC1`: the T/C reads like this: (dose: 3.13 mg/kg/injection, schedule: Q04DX003 (ip), vehicle: saline) 104 % of control; (dose: 10.0 mg/kg/injection, schedule: Q01DX009 (ip), vehicle: saline) 177 % of control; (dose: 12.5 mg/kg/injection, schedule: Q04DX003 (ip), vehicle: saline with Tween-80) 159 % of control; (dose: 20.0 mg/kg/injection, schedule: Q01DX009 (ip), vehicle: saline) 227 % of control; (dose: 25.0 mg/kg/injection, schedule: Q04DX003 (ip), vehicle: saline with Tween-80) 218 % of control.
`N#C/C(=C\c1cccnc1)C(N)=S`: the T/C under setting [12] is 101 % of control, the T/C under setting [13] is 88 % of control and the T/C under setting [14] was 104 % of control.
`CSc1ncnc2c1ncn2C1OC(CO)C(O)OC1O` (centres undefined): the T/C is 122 % of control (dose: 16.5 mg/kg/injection, schedule: Q01DX009 (ip), vehicle: saline with Tween-80); 109 % of control (dose: 50.0 mg/kg/injection, schedule: Q04DX003 (ip), vehicle: saline with Tween-80); 112 % of control (dose: 66.0 mg/kg/injection, schedule: Q04DX003 (ip), vehicle: saline with Tween-80); 108 % of control under setting [4].
Take `Nc1nc2c(ncn2C2OC(CO)C(O)C2O)c(=O)[nH]1.[Cl-].[Cl-].[NH2-].[NH2-].[Pt+4]` (centres undefined): the T/C reads like this: (dose: 2.0 mg/kg/injection, schedule: Q01DX009 (ip), vehicle: saline) 118 % of control; (dose: 4.0 mg/kg/injection, schedule: Q01DX009 (ip), vehicle: saline) 122 % of control; (dose: 8.0 mg/kg/injection, schedule: Q01DX009 (ip), vehicle: saline) 172 % of control and 178 % of control; (dose: 16.0 mg/kg/injection, schedule: Q01DX009 (ip), vehicle: saline) 216 % of control and 238 % of control; (dose: 32.0 mg/kg/injection, schedule: Q01DX009 (ip), vehicle: saline) 93 % of control.
As for `O=S(=O)(Cc1ccccc1)c1ccccc1`, the T/C was 118 % of control under setting [12], 118 % of control under setting [13] and 116 % of control under setting [14].
As to `C1COCCOCCOCCOCCO1.[Br][Sn]([Br])([Br])[Br]`, the T/C is 96 % of control (dose: 7.5 mg/kg/injection, schedule: Q01DX005 (ip), vehicle: Klucel (hydroxypropylcellulose) (HPC)); 102 % of control (dose: 15.0 mg/kg/injection, schedule: Q01DX005 (ip), vehicle: Klucel (hydroxypropylcellulose) (HPC)); 105 % of control (dose: 30.0 mg/kg/injection, schedule: Q01DX005 (ip), vehicle: Klucel (hydroxypropylcellulose) (HPC)).
For `COc1cccc2c1C(=O)c1c(O)c3c(c(O)c1C2=O)C[C@@](O)(C(C)=O)C[C@@H]3OC1CC(N2CCOCC2C#N)C(O)C(C)O1` (some centres undefined), the T/C is, setting by setting: (dose: 0.2 mg/kg/injection, schedule: Q04DX003 (ip), vehicle: water) 191 % of control; (dose: 0.39 mg/kg/injection, schedule: Q04DX003 (ip), vehicle: distilled water + Tween-80) 187 % of control; (dose: 0.39 mg/kg/injection, schedule: Q04DX003 (ip), vehicle: water) 207 % of control; (dose: 0.78 mg/kg/injection, schedule: Q04DX003 (ip), vehicle: water) 95 % of control.
As to `COc1ccc(/C=N/NC(=O)C(=O)N/N=C/c2ccc(OC)c(S(=O)(=O)O)c2)cc1S(=O)(=O)O`, the T/C runs as follows: under setting [12], 102 % of control; under setting [13], 104 % of control; under setting [14], 109 % of control.
As to `Cc1cc(O)c(N=Nc2ccc(C(=O)O)cc2)cc1C`, the T/C by setting is: (dose: 100.0 mg/kg/injection, schedule: Q01DX009 (ip), vehicle: saline with Tween-80) 100 % of control; under setting [4], 90 % of control; (dose: 200.0 mg/kg/injection, schedule: Q01DX009 (ip), vehicle: saline with Tween-80) 95 % of control; (dose: 400.0 mg/kg/injection, schedule: Q01DX009 (ip), vehicle: saline with Tween-80) 95 % of control; under setting [5], 90 % of control.
For the molecule `Oc1cc2c(cc1C(c1ccc3c(c1)OCO3)N1CCCC1)OCO2` (centres undefined), the T/C by setting is: (dose: 60.0 mg/kg/injection, schedule: Q01DX005 (ip), vehicle: Klucel (hydroxypropylcellulose) (HPC)) 109 % of control; (dose: 120.0 mg/kg/injection, schedule: Q01DX005 (ip), vehicle: Klucel (hydroxypropylcellulose) (HPC)) 110 % of control; (dose: 240.0 mg/kg/injection, schedule: Q01DX005 (ip), vehicle: Klucel (hydroxypropylcellulose) (HPC)) 112 % of control.
Regarding `COc1cccc2c1C(=O)c1c(O)c3c(c(O)c1C2=O)CC(O)(/C(C)=N/NC(=O)CCCCCCC(=O)N/N=C(\C)C1(O)Cc2c(O)c4c(c(O)c2C(OC2CC(N)C(O)C(C)O2)C1)C(=O)c1c(OC)cccc1C4=O)CC3OC1CC(N)C(O)C(C)O1` (centres undefined), the T/C is 162 % of control (dose: 2.0 mg/kg/injection, schedule: Q01DX009 (ip), vehicle: water); 212 % of control (dose: 4.0 mg/kg/injection, schedule: Q01DX009 (ip), vehicle: water); 245 % of control (dose: 8.0 mg/kg/injection, schedule: Q01DX009 (ip), vehicle: water); 87 % of control (dose: 16.0 mg/kg/injection, schedule: Q01DX009 (ip), vehicle: water).
